Assay results taken from the NIST ThermoML archive (doi:10.1016/j.jct.2012.01.023).
Numbers after ± are expanded uncertainties.

What was measured:
[1] = xn = mol fraction of the nth substance listed; conditions: 298.15 K, Drop volume
[2] = for mass density: 298.1 K, 101.33 kPa, Liquid, Vibrating tube method; for surface tension liquid-gas: 298.15 K, Drop volume

CCCCOS(=O)(=O)[O-].CC[n+]1ccn(C)c1 [3-ethyl-1-methylimidazolium butyl sulfate] + CCO
[1]
Conditions | surface tension liquid-gas [mN/m]
x1 = 0.066 | 23.6 ± 0.25
x1 = 0.1347 | 25.01 ± 0.26
x1 = 0.1536 | 25.36 ± 0.26
x1 = 0.2904 | 27.76 ± 0.28
x1 = 0.4691 | 30.63 ± 0.31
x1 = 0.4993 | 31.05 ± 0.32
x1 = 0.6866 | 33.99 ± 0.36
x1 = 0.7916 | 35.75 ± 0.4
x1 = 0.8794 | 37.35 ± 0.43
x1 = 1 | 39.62 ± 0.47

CCO [ethanol] + CCOS(=O)(=O)[O-].CCn1cc[n+](C)c1
Conditions | surface tension liquid-gas [mN/m]
[1], x2 = 0 | 22.01 ± 0.24

CCCCCCOS(=O)(=O)[O-].CC[n+]1ccn(C)c1 [3-ethyl-1-methyl-1H-imidazolium hexyl sulfate]
[2]
Conditions | mass density [kg/m3] | surface tension liquid-gas [mN/m]
– | 1129.6 ± 1.4 | 34.77 ± 0.43

CCOS(=O)(=O)[O-].CCn1cc[n+](C)c1 [1-ethyl-3-methylimidazolium ethyl sulfate] + CCO
[1]
Conditions | surface tension liquid-gas [mN/m]
x1 = 0.0988 | 24.18 ± 0.25
x1 = 0.2056 | 26.37 ± 0.25
x1 = 0.3025 | 28.52 ± 0.26
x1 = 0.3989 | 30.68 ± 0.27
x1 = 0.4999 | 32.99 ± 0.28
x1 = 0.5984 | 35.4 ± 0.29
x1 = 0.703 | 38.12 ± 0.31
x1 = 0.8252 | 41.48 ± 0.33
x1 = 0.9048 | 43.81 ± 0.34
x1 = 1 | 47.16 ± 0.36

CCOS(=O)(=O)[O-].CCn1cc[n+](C)c1 [1-ethyl-3-methylimidazolium ethyl sulfate] + O
[1]
Conditions | surface tension liquid-gas [mN/m]
x1 = 0.005 | 67.23 ± 0.33
x1 = 0.0199 | 62.42 ± 0.31
x1 = 0.0402 | 59.68 ± 0.31
x1 = 0.06 | 57.64 ± 0.3
x1 = 0.1006 | 55.64 ± 0.3
x1 = 0.202 | 52.23 ± 0.3
x1 = 0.3017 | 50.45 ± 0.3
x1 = 0.4046 | 49.42 ± 0.31
x1 = 0.5026 | 48.79 ± 0.31
x1 = 0.6066 | 48.3 ± 0.32
x1 = 0.6957 | 47.94 ± 0.33
x1 = 0.7939 | 47.72 ± 0.34
x1 = 0.9041 | 47.39 ± 0.35
x1 = 1 | 47.16 ± 0.36

CCCCCCOS(=O)(=O)[O-].CC[n+]1ccn(C)c1 [3-ethyl-1-methyl-1H-imidazolium hexyl sulfate] + O
[1]
Conditions | surface tension liquid-gas [mN/m]
x1 = 0.0005 | 62.58 ± 0.96
x1 = 0.0008 | 58.45 ± 0.83
x1 = 0.002 | 49.54 ± 0.9
x1 = 0.005 | 42.13 ± 0.56
x1 = 0.0196 | 40.27 ± 0.27
x1 = 0.0396 | 39.55 ± 0.27
x1 = 0.0602 | 38.88 ± 0.27
x1 = 0.0797 | 38.25 ± 0.27
x1 = 0.0997 | 37.79 ± 0.27
x1 = 0.1997 | 36.16 ± 0.28
x1 = 0.3009 | 35.59 ± 0.29
x1 = 0.4034 | 35.25 ± 0.3
x1 = 0.4957 | 35.05 ± 0.32
x1 = 0.5943 | 34.95 ± 0.34
x1 = 0.705 | 34.87 ± 0.36
x1 = 0.7893 | 34.82 ± 0.38
x1 = 0.8997 | 34.77 ± 0.41
x1 = 1 | 34.77 ± 0.43

CCCCOS(=O)(=O)[O-].CC[n+]1ccn(C)c1 [3-ethyl-1-methylimidazolium butyl sulfate] + O
[1]
Conditions | surface tension liquid-gas [mN/m]
x1 = 0.0389 | 44.48 ± 0.35
x1 = 0.0403 | 45.93 ± 0.35
x1 = 0.0579 | 40.83 ± 0.28
x1 = 0.0602 | 41.7 ± 0.28
x1 = 0.0758 | 39.85 ± 0.27
x1 = 0.0805 | 39.96 ± 0.27
x1 = 0.0934 | 39.08 ± 0.27
x1 = 0.0987 | 39.17 ± 0.27
x1 = 0.1004 | 39.42 ± 0.27
x1 = 0.101 | 39.84 ± 0.28
x1 = 0.12 | 39.74 ± 0.27
x1 = 0.133 | 40.29 ± 0.28
x1 = 0.1464 | 40.85 ± 0.28
x1 = 0.1716 | 41.83 ± 0.29
x1 = 0.1947 | 41.59 ± 0.29
x1 = 0.2004 | 41.48 ± 0.29
x1 = 0.2585 | 40.83 ± 0.3
x1 = 0.2973 | 40.81 ± 0.3
x1 = 0.3957 | 40.04 ± 0.32
x1 = 0.4017 | 40.31 ± 0.32
x1 = 0.4764 | 39.93 ± 0.34
x1 = 0.4992 | 40.01 ± 0.34
x1 = 0.5868 | 39.89 ± 0.36
x1 = 0.703 | 39.82 ± 0.39
x1 = 0.7997 | 39.77 ± 0.42
x1 = 0.9034 | 39.67 ± 0.45
x1 = 1 | 39.62 ± 0.47

O [water] + CCOS(=O)(=O)[O-].CCn1cc[n+](C)c1
Conditions | surface tension liquid-gas [mN/m]
[1], x2 = 0 | 71.35 ± 0.33

O [water]
Conditions | surface tension liquid-gas [mN/m]
[2] | 71.35 ± 0.33

CCCCOS(=O)(=O)[O-].CC[n+]1ccn(C)c1 [3-ethyl-1-methylimidazolium butyl sulfate]
[2]
Conditions | mass density [kg/m3] | surface tension liquid-gas [mN/m]
– | 1175.65 ± 1.5 | 39.64 ± 0.48

CCOS(=O)(=O)[O-].CCn1cc[n+](C)c1 [1-ethyl-3-methylimidazolium ethyl sulfate]
[2]
Conditions | mass density [kg/m3] | surface tension liquid-gas [mN/m]
– | 1238.3 ± 1.1 | 47.13 ± 0.36

CCCCCCCCOS(=O)(=O)[O-].CCn1cc[n+](C)c1 [1-ethyl-3-methylimidazolium octyl sulfate]
[2]
Conditions | mass density [kg/m3] | surface tension liquid-gas [mN/m]
– | 1093.75 ± 1.4 | 31.29 ± 0.4

CCCCCCOS(=O)(=O)[O-].CC[n+]1ccn(C)c1 [3-ethyl-1-methyl-1H-imidazolium hexyl sulfate] + CCO
[1]
Conditions | surface tension liquid-gas [mN/m]
x1 = 0.03 | 22.98 ± 0.25
x1 = 0.0679 | 23.87 ± 0.25
x1 = 0.0977 | 24.48 ± 0.25
x1 = 0.1253 | 25 ± 0.25
x1 = 0.2267 | 26.53 ± 0.27
x1 = 0.3138 | 27.69 ± 0.28
x1 = 0.386 | 28.6 ± 0.29
x1 = 0.4691 | 29.48 ± 0.3
x1 = 0.5946 | 30.86 ± 0.33
x1 = 0.7189 | 32.08 ± 0.36
x1 = 0.7951 | 32.84 ± 0.37
x1 = 0.9409 | 34.31 ± 0.41
x1 = 1 | 34.77 ± 0.43

CCCCCCCCOS(=O)(=O)[O-].CCn1cc[n+](C)c1 [1-ethyl-3-methylimidazolium octyl sulfate] + O
[1]
Conditions | surface tension liquid-gas [mN/m]
x1 = 0.0002 | 56.92 ± 0.85
x1 = 0.0007 | 42.45 ± 0.34
x1 = 0.005 | 37.84 ± 0.28
x1 = 0.011 | 37.19 ± 0.26
x1 = 0.0198 | 36.69 ± 0.26
x1 = 0.0349 | 35.3 ± 0.26
x1 = 0.0506 | 34.96 ± 0.26
x1 = 0.0774 | 33.87 ± 0.26
x1 = 0.0937 | 33.62 ± 0.26
x1 = 0.2846 | 31.01 ± 0.27
x1 = 0.4 | 30.48 ± 0.28
x1 = 0.5127 | 30.72 ± 0.3
x1 = 0.5677 | 30.67 ± 0.31
x1 = 0.6347 | 30.71 ± 0.32
x1 = 0.6934 | 30.74 ± 0.33
x1 = 0.7018 | 30.77 ± 0.34
x1 = 0.7373 | 30.7 ± 0.34
x1 = 0.766 | 30.81 ± 0.35
x1 = 0.8287 | 30.71 ± 0.36
x1 = 0.8904 | 30.79 ± 0.37
x1 = 1 | 30.91 ± 0.4

CCCCCCCCOS(=O)(=O)[O-].CCn1cc[n+](C)c1 [1-ethyl-3-methylimidazolium octyl sulfate] + CCO
[1]
Conditions | surface tension liquid-gas [mN/m]
x1 = 0.0399 | 22.89 ± 0.25
x1 = 0.0712 | 23.71 ± 0.25
x1 = 0.098 | 24.48 ± 0.25
x1 = 0.1595 | 25.82 ± 0.26
x1 = 0.215 | 26.62 ± 0.27
x1 = 0.2445 | 27.01 ± 0.27
x1 = 0.2985 | 27.64 ± 0.28
x1 = 0.3506 | 28.18 ± 0.28
x1 = 0.4002 | 28.61 ± 0.29
x1 = 0.4582 | 28.92 ± 0.3
x1 = 0.5059 | 29.14 ± 0.31
x1 = 0.6269 | 29.6 ± 0.33
x1 = 0.7387 | 29.96 ± 0.35
x1 = 0.8317 | 30.5 ± 0.36
x1 = 0.9164 | 30.8 ± 0.38
x1 = 0.9432 | 30.79 ± 0.39
x1 = 0.953 | 30.82 ± 0.39
x1 = 1 | 30.91 ± 0.4

CCO [ethanol]
Conditions | surface tension liquid-gas [mN/m]
[2] | 22.01 ± 0.24
